Patent US11945812B2, “Annulated 2-amino-3-cyano thiophenes and derivatives for the treatment of cancer” (Boehringer Ingelheim International GmbH, priority 2020, dated 2024)
Read-outs that look alike come from different tables or passages of the source.

Assays:
[1] = Plasma protein binding (equilibrium dialysis), human plasma; type: in vitro ADME; details: read-out: PPB human fu
Description: (§1) Plasma Protein Binding (PPB)
(§2) Binding of test compound to plasma was determined using equilibrium dialysis (ED) and quantitative mass spectrometry interfaced with liquid chromatography (LC-MS). In brief, ED was performed with dialysis devices consisting of two chambers separated by a semipermeable membrane with a molecular weight cut-off of 5-10 kg/mol. One chamber was filled with commercially sourced plasma (mouse and human plasma, respectively) or serum (10% FCS in PBS) containing 1-10 μmol/L test compound and the other chamber was filled with phosphate-buffer saline (PBS) with or without dextran. The dialysis chamber was incubated for 3-5 hours at 37° C. After incubation, protein was precipitated from aliquots of each chamber and the concentration of test compound in the supernatant of the plasma-containing compartment (cplasma) and of the buffer-containing compartment (Cbuffer) was determined by LC-MS. The fraction of unbound test compound (not bound to plasma) (fu) was calculated according to the following equation: […]

[2] = Plasma protein binding (equilibrium dialysis), serum 10% FCS in PBS; type: in vitro ADME; details: bovine, 10% FCS in PBS (serum), read-out: PPB 10% FCS fu
Description: as §1, §2

[3] = Plasma protein binding (equilibrium dialysis), mouse plasma; type: in vitro ADME; details: read-out: PPB mouse fu
Description: as §1, §2

[4] = target: T1, KRAS G12C::SOS1 protein-protein interaction (Homo sapiens, UniProt P01116, C118S/C51S/C80L/G12C); experiment: KRAS::SOS1 AlphaScreen binding assay; details: KRAS G12C::SOS1 AlphaScreen
T1 construct: His6 (N); host or cells: E. coli
Description: KRAS::SOS1 AlphaScreen Binding Assay
Reagents: • GST-tagged SOS1 (564_1049_GST_TEV_ECO) produced in-house • GST-TEV-SOS1 (564-1049) is purchased from Viva Biotech Ltd. • The expression construct of KRAS G12C (amino acids 1-169 of reference sequence P01116-2 (uniprot), with additional mutations: C51S, C80L, and C118S) containing a C-terminal avi-tag was obtained by gene synthesis (GeneArt, Thermo Fisher) in donor vector (pDONR-221) and transferred by recombinant cloning into pDEST17 vector bearing an N-terminal His6-tag. The protein was expressed in E. coli and the purified protein was biotinylated with the E. coli biotin ligase (BirA) before usage. • GDP (Sigma Cat No G7127) • AlphaLISA Glutathione Acceptor Beads (PerkinElmer, Cat No AL109) • AlphaScreen Streptavidin Donor Beads (PerkinElmer Cat No 6760002) • Assay plates: Proxiplate-384 PLUS, white (PerkinElmer, Cat No 6008289)
Assay Buffer: • 1×PBS • 0.1% BSA • 0.05% Tween 20
7.5 nM (final assay concentration) KRAS G12C, 10 μM (final assay concentration) GDP and 5 nM (final assay concentration) GST-SOS1 are mixed in assay buffer prior to use and kept at room temperature.
AlphaLISA Glutathione Acceptor Beads and AlphaScreen Streptavidin Donor Beads are mixed in assay buffer at a concentration of 10 μg/mL (final assay concentration) each prior to use and kept at room temperature.
Compounds are diluted to a final start concentration of 100 μM and are tested in duplicate. Assay-ready plates (ARPs) are generated using an Access Labcyte Workstation with a Labcyte Echo 550 or 555 accoustic dispenser. For compound a start concentration of 100 μM, 150 nL of compound solution is transferred per well in 11 concentrations in duplicate with serial 1:5 dilutions.
The assay is run using a fully automated robotic system in a darkened room below 100 Lux. 10 μL of KRAS::SOS1 GDP mix is added into columns 1-24 to the 150 nL of compound solution (final dilution in the assay 1:100, final DMSO concentration 1%).
After 30 minutes incubation time 5 μL of bead mix is added into columns 1-23. Plates are kept at room temperature in a darkened incubator. After further 60 minutes incubation, the signal is measured using a PerkinElmer Envision HTS Multilabel Reader using the AlphaScreen specifications from PerkinElmer. Each plate contains the following controls: • diluted DMSO+KRAS::SOS1 GDP mix+bead mix • diluted DMSO+KRAS::SOS1 GDP mix
IC50 values are calculated and analyzed using a 4 parametric logistic model.
Tables of example compounds disclosed herein contain IC50 values determined using the above assay.

[5] = system: ERK phosphorylation in NCI-H358_Cas9_SOS2; experiment: ERK phosphorylation assay 2 (AlphaLISA SureFire Ultra p-ERK1/2), SOS2 knock-out; type: cell-based; details: Homo sapiens, NCI-H358; assay 2 (marked with *); read-out: IC50 H358 pERK
Description: ERK Phosphorylation Assay
Materials Used for the Assay;

[6] = target: Ba/F3 cells bearing a KRAS G12C mutation (Homo sapiens, UniProt P01116, G12C, cells depend on it); experiment: Ba/F3 cell model proliferation assay (AlamarBlue, 72 h); type: cell-based
Description: Ba/F3 Cell Model Generation and Proliferation Assay
Plasmids containing KRASG12 mutants were obtained from GeneScript. To generate KRASG12-dependent Ba/F3 models, Ba/F3 cells were transduced with retroviruses containing vectors that harbor KRASG12 isoforms. Platinum-E cells (Cell Biolabs) were used for retrovirus packaging. Retrovirus was added to Ba/F3 cells. To ensure infection, 4 μg/mL polybrene was added and cells were spinfected. […] Cells with an infection efficiency of 10% to 20% were further cultivated and puromycin selection with 1 μg/mL was initiated. As a control, parental Ba/F3 cells were used to show selection status. Selection was considered successful when parental Ba/F3 cells cultures died. To evaluate the transforming potential of KRASG12 mutations, the growth medium was no longer supplemented with IL-3. Ba/F3 cells harboring the empty vector were used as a control. Approximately ten days before conducting the experiments, puromycin was left out.
All treatments were performed in technical duplicates. The assay is run using a fully automated robotic system. Treated cells were incubated for 72 h at 37° C. with 5% CO2. AlamarBlue™ (ThermoFisher), a viability stain, was added and fluorescence measured in the PerkinElmer Envision HTS Multilabel Reader.

[7] = Ba/F3 KRAS G12C cells, 72 h, 10% FCS, uncorrected, read-out: IC50 Ba/F3 KRASG12C
[8] = corrected by plasma protein binding in 10% FCS (fraction unbound), read-out: IC50 Ba/F3 KRASG12C (corrected)

Chain of Ba/F3 cells bearing a KRAS G12C mutation (P01116 whole entry G12C): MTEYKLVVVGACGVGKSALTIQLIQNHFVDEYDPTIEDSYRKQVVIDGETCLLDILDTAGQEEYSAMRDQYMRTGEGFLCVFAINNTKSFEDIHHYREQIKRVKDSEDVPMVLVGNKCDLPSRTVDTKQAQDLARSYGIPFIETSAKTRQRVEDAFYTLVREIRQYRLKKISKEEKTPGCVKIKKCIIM
T1 sequence (P01116 1-169 isoform P01116-2 G12C/C51S/C80L/C118S): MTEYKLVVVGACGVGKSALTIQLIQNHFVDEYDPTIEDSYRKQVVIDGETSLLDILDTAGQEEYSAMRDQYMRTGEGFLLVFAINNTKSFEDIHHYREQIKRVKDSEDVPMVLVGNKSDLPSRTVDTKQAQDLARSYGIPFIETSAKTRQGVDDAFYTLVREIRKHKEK

SMILES | fraction unbound [1] | fraction unbound [2] | fraction unbound [3] | IC50 [4] [nM] | IC50 [5] [nM] | GI50 [6, 7] [nM] | GI50 [6, 8] [nM]
C=C(F)C(=O)N1CCN(c2nc(OC[C@@H]3CCCN3C)nc3c2CCN(c2cccc4cccc(Cl)c24)C3)C[C@@H]1CC#N [adagrasib, reference compound] | 0.014 | 0.43 | 0.004 |  |  |  | 
C=CC(=O)N1CCN(c2cc(-c3cc([C@@]4(C)CCCc5sc(N)c(C#N)c54)sn3)nc(O[C@@H](C)[C@@H]3CCCN3C)n2)CC1 [Id-3] |  |  |  | 1.7 | 1.1 | < 1.3 | 
C=CC(=O)N1[C@@H](C)CN(c2nc(-c3cc([C@@]4(C)CCCc5sc(N)c(C#N)c54)on3)nc(O[C@@H](C)[C@@H]3CCCN3C)c2Cl)C[C@@H]1C [Ib-9] | 0.002 | 0.026 | 0.001 | 4 | 11.3 | 2.9 | 0.08
C=CC(=O)N1CCN(c2cc(-c3cc(C4(C)CCCc5sc(N)c(C#N)c54)on3)nc(O[C@@H](C)[C@@H]3CCCN3C)n2)CC1 (some centres unmarked) [Ib-2] |  |  |  | 2 | 3.1 |  | 
C=CC(=O)N1[C@H](C)CN(c2cc(O[C@@H](C)[C@@H]3CCCN3C)nc(-c3cc([C@@]4(C)CCCc5sc(N)c(C#N)c54)on3)n2)C[C@@H]1C [Ib-3] | 0.018 | 0.078 | 0.004 | 2 | 4.1 | 3.9 | 0.3
C=CC(=O)N1CCC(Oc2cc(O[C@@H](C)[C@@H]3CCCN3C)nc(-c3cc([C@@]4(C)CCCc5sc(N)c(C#N)c54)on3)n2)CC1 [Ib-7] | 0.018 | 0.127 | 0.007 | 1.5 | 0.6 | 0.2 | 0.03
C=CC(=O)N1CCC(Oc2cc(N3CCN(C)C[C@@H]3C)nc(-c3cc(C4(C)CCCc5sc(N)c(C#N)c54)on3)n2)CC1 (some centres unmarked) [Ib-8] | 0.014 | 0.198 | 0.001 | 13 | 12.7 | 13.5 | 2.67
COC/C=C/C(=O)N1CCN(c2cc(O[C@@H](C)[C@@H]3CCCN3C)nc(-c3cc(C4(C)CCCc5sc(N)c(C#N)c54)on3)n2)CC1 (some centres unmarked) [Ib-15] | 0.041 | 0.185 | 0.011 | 17 | 32.7 | 72.4 | 13.4
COC/C=C/C(=O)N1CCN(c2cc(O[C@@H](C)[C@@H]3CCCN3C)nc(-c3cc([C@@]4(C)CCCc5sc(N)c(C#N)c54)sn3)n2)CC12CC2 [Id-9] |  | 0.336 | 0.003 | 21 | 58.9 | 44 | 14.8
C=C(F)C(=O)N1CCC(Oc2cc(N3CCN(C)C[C@@H]3C)nc(-c3cc(C4(C)CCCc5sc(N)c(C#N)c54)on3)n2)CC1 (some centres unmarked) [Ib-13] | 0.005 | 0.114 | < 0.0005 | 278 | 1140 | 350 | 39.9
C=CC(=O)N1CCC(Oc2cc(O[C@@H](C)[C@@H]3CCCN3C)nc(-c3cc([C@@]4(C)CCCc5sc(N)c(C#N)c54)no3)n2)CC1 [Ic-6] |  | 0.093 | < 0.001 | 1.6 | 0.5 | 0.7 | 0.07
C=C(F)C(=O)N1CCN(c2cc(O[C@@H](C)[C@@H]3CCCN3C)nc(-c3cc(C4(C)CCCc5sc(N)c(C#N)c54)sn3)n2)CC1 (some centres unmarked) [Id-7] |  |  |  | 5 | 20.5 | 5.4 | 
COC/C=C/C(=O)N1CCN(c2cc(O[C@@H](C)[C@@H]3CCCN3C)nc(-c3cc([C@@]4(C)CCCc5sc(N)c(C#N)c54)on3)n2)CC12CC2 [Ib-16] | 0.02 | 0.044 | 0.002 | 42 | 969 | 124 | 5.45
C=C(F)C(=O)N1[C@@H](C)CN(c2nc(-c3cc([C@@]4(C)CCCc5sc(N)c(C#N)c54)on3)nc(O[C@@H](C)[C@@H]3CCCN3C)c2Cl)C[C@@H]1C [Ib-12] | < 0.00052 | 0.016 | < 0.0004 | 74 | 830 | 67.9 | 1.09
C=C(F)C(=O)N1CCC(Oc2cc(O[C@@H](C)[C@@H]3CCCN3C)nc(-c3cc([C@@]4(C)CCCc5sc(N)c(C#N)c54)sn3)n2)CC1 [Id-8] | 0.004 | 0.352 | < 0.0009 | 3 | 16.1 | 4.3 | 1.51
